Here are results for five compounds from ChEMBL document CHEMBL1201862, “PubChem BioAssay data set” (2004).

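Following 48 hours of exposure in 96-well plates, responses at five concentrations were used to interpolate endpoints linearly. Here, GI50 denotes the concentration required for 50% inhibition of growth.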 The source made the active and inactive calls. No stated cut-off is given here; in the data, active = GI50 up to about 1.1 µM and inactive = higher.

Experiment in all cases: NCI-60 cell line screen, 48 h
The subject of assay [1] is LXFL 529.
The subject of assay [2] is MOLT-4.
For assay [3], the system named is XF498.
The subject of assay [4] is SNB-78.
In assay [5] the test system is M14.
The test system of assay [6] is K562.
Assay [7] deals with HL-60.
For assay [8], the system named is IGROV-1.
Assay [9] deals with SN12C.
Assay [10] has as its system DMS-114.
Assay [11] deals with SF-539.
Assay [12] concerns SK-MEL-5.
Assay [13] concerns OVCAR-4.
The test system of assay [14] is Malme-3M.
The subject of assay [15] is LOX IMVI.
The test system of assay [16] is SK-MEL-2.
Assay [17] deals with HOP-18.
Assay [18] has as its system KM-20L2.
Assay [19] deals with COLO 205.
Assay [20] has as its system RPMI-8226.

In the case of `O=C(NN1C(=O)C(Cl)C1c1cccc(O)c1)c1ccccc1O` (centres undefined), the GI50 in assay [1], in assay [2], in assay [3], in assay [4], in assay [5] and in [6] was > 100 µM (inactive) throughout. The GI50 in assay [7], in [8], in assay [9], in assay [10], in assay [11] and in [12] was > 100 µM (inactive) in each case. The GI50 in assay [13] was > 100 µM (inactive); in assay [14] it was > 100 µM (inactive); in assay [15], > 100 µM (inactive); in assay [16], > 100 µM (inactive); in assay [17], 24.8 µM (inactive).
Consider `COc1cc2c(cc1OC)C(Cl)C(c1ccc(Cl)c(Cl)c1)=C2Cl` (centres undefined), for which the GI50 in assay [1] was 5.15 µM (inactive); in assay [2] it was 2.92 µM (inactive); in assay [3] it was < 0.01 µM (active); in assay [4], 5.56 µM (inactive); in [5], 9.4 µM (inactive); in assay [6], 3.22 µM (inactive). Further, the GI50 was 2.47 µM (inactive) in assay [7]; 10.7 µM (inactive) in assay [8]; 9.27 µM (inactive) in assay [9]; 8.71 µM (inactive) in [18]; 3.42 µM (inactive) in assay [10]; 10.3 µM (inactive) in [11]. Moreover, the GI50 in assay [19] is 10.7 µM (inactive); in [12], 5.94 µM (inactive); in assay [14] it was 12.6 µM (inactive); in [15], 2.24 µM (inactive); in assay [16], 6.84 µM (inactive); in assay [17], 12.9 µM (inactive). Also, in assay [20], the GI50 was 3.14 µM (inactive).
Consider `COc1ccc(C2SCC(=O)N2NC(=O)c2ccncc2)cc1F` (centres undefined), for which the GI50 in assay [1], in assay [3], in [4], in assay [5], in assay [7] and in assay [9] was > 100 µM (inactive) each time. Besides, the GI50 in assay [18], in assay [10], in [19], in assay [12], in assay [13] and in assay [14] was > 100 µM (inactive) throughout. Also, the GI50 in [15] was > 100 µM (inactive); in assay [16], > 100 µM (inactive); in assay [17], 7.29 µM (inactive); in assay [20], > 100 µM (inactive).
`NC(=O)N/C=C1\C(=O)Oc2ccccc2C1=O`: the GI50 in [1] is > 100 µM (inactive); in assay [2], > 100 µM (inactive); in assay [4], 43.2 µM (inactive); in [5], 82.8 µM (inactive); in assay [6], > 100 µM (inactive); in [7] it was 53.8 µM (inactive). Besides, the GI50 in assay [8] is > 100 µM (inactive); in assay [9], 64.4 µM (inactive); in assay [18], 86.5 µM (inactive); in [10], > 100 µM (inactive); in [11] it was 85.9 µM (inactive); in assay [19], > 100 µM (inactive). The GI50 in [12] is > 100 µM (inactive); in [13] it was > 100 µM (inactive); in assay [15] it was > 100 µM (inactive); in assay [16], 40 µM (inactive); in assay [20], > 100 µM (inactive).
Take `COc1ccc(C2c3cc4c(cc3OC(O)(CO)C2C(=O)O)OCO4)cc1.COc1ccc(C2c3cc4c(cc3OC3(O)COC(=O)C23)OCO4)cc1` (centres undefined): the GI50 in assay [1] is 15.6 µM (inactive); in assay [2], 19.1 µM (inactive); in assay [3] it was 0.536 µM (active); in assay [4], 23.2 µM (inactive); in assay [5], 15.3 µM (inactive); in assay [6], 19.1 µM (inactive). The GI50 in assay [7] is 17.2 µM (inactive); in [8] it was 20.4 µM (inactive); in assay [9], 23.7 µM (inactive); in assay [18], 43.2 µM (inactive); in assay [10], 22.2 µM (inactive); in assay [11], 20.7 µM (inactive). Moreover, the GI50 in [19] was 10.3 µM (inactive); in assay [12], 19.8 µM (inactive); in assay [13], > 100 µM (inactive); in [14] it was 26.9 µM (inactive); in assay [15], 16.5 µM (inactive); in assay [16], 25.9 µM (inactive). Further, the GI50 is 50.4 µM (inactive) in assay [17] and 20.4 µM (inactive) in assay [20].
